In patent US20210115018A1, “PIPERIDINE COMPOUNDS AS COVALENT MENIN INHIBITORS” (THE REGENTS OF THE UNIVERSITY OF MICHIGAN, priority 2018, published 2021):

Legend:
[1] = target: T1, menin protein (Homo sapiens, UniProt O00255); experiment: Fluorescence polarization (FP) competitive binding assay, menin binding affinity; conditions: FP competition with FAM-MM2 probe 2 nM, menin 4 nM, 30 minutes room temperature
T1 sequence (O00255 1-610): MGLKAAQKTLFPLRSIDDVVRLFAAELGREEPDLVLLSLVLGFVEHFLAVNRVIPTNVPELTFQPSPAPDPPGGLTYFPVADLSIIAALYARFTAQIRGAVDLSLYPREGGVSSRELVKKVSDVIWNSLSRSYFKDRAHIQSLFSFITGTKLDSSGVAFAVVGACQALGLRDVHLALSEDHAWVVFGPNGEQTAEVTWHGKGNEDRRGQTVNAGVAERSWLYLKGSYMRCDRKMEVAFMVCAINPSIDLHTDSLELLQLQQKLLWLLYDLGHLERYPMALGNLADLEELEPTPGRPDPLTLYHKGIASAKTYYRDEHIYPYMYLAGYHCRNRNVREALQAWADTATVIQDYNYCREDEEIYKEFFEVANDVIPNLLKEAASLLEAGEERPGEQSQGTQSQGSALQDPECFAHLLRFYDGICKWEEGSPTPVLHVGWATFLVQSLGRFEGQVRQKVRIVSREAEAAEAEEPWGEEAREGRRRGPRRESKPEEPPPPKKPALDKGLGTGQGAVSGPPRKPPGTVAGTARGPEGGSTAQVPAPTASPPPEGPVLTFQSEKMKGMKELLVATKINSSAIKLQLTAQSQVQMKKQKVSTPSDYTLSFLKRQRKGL
Method in brief: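 Competitive FP with FAM-labeled MLL1 peptide probe FAM-MM2 (2 nM) and menin (4 nM) in PBS, 0.02% bovine γ-globulin, 4% DMSO, 0.01% Triton X-100. After 30 min at room temperature, mP read at 485/530 nm; IC50 from nonlinear regression against probe-only and complex-only controls.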

[2] = tested on: MOLM13; experiment: 7-day proliferation assay (WST-8), cell growth inhibition; assay type: cell-based; conditions: Homo sapiens, MOLM-13, 168 h, MOLM13 cells, 7 days
Method in brief: (§1)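 Cells seeded at 2,000-3,000/well were exposed to serially diluted compound for 7 days at 37° C., 5% CO2. Viability was read by WST-8 absorbance at 450 nm after 1-2 h color development; readings normalized to DMSO-treated cells, IC50 by four-parameter nonlinear regression.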

[3] = tested on: MV4-11; experiment: as above; assay type: cell-based; conditions: Homo sapiens, MV4-11, 168 h, MV4-11 cells, 7 days
Method in brief: as §1

SMILES	IC50 [1]	IC50 [2]	IC50 [3]
C=CC(=O)N1CCCC[C@@H](S(=O)(=O)c2ccc(N3CC(CN4CCC([C@@](CN5CCC5)(c5cccc(F)c5)[C@H]5CCC[C@@H]5NC(=O)OC)CC4)C3)c(F)c2)C1 [compound 223]	4 nM	< 50 nM	< 50 nM
C=CC(=O)N1CCCC[C@@H](S(=O)(=O)c2ccc(N3CC(O)(CN4CCC([C@@](CN5CCC5)(c5cccc(F)c5)[C@H]5CCC[C@@H]5NC(=O)OC)CC4)C3)cc2)C1 [compound 228]	7 nM	< 500 nM	< 50 nM
C/C=C/S(=O)(=O)N1CCCC[C@@H](S(=O)(=O)c2ccc(N3CC(F)(CN4CCC([C@@](CN5CCC5)(c5cccc(F)c5)[C@H]5CCC[C@@H]5NC(=O)OC)CC4)C3)cc2)C1 [compound 233]	3 nM	< 500 nM	< 100 nM
COC(=O)N[C@H]1CCC[C@@H]1[C@](CN1CCC1)(c1cccc(F)c1)C1CCN(CC2CN(c3ccc(S(=O)(=O)C4CN(C(=O)/C=C/CN5CCCCC5)C4)cc3)C2)CC1 [Cpd. No. 24, methyl ((1S,2R)-2-((S)-2-(azetidin-1-yl)-1-(3-fluorophenyl)-1-(1-((1-(4-((1-((E)-4-(piperidin-1-yl)but-2-enoyl)azetidin-3-yl)sulfonyl)phenyl)azetidin-3-yl)methyl)piperidin-4-yl)ethyl)cyclopentyl)carbamate]	3 nM	< 10 nM	< 10 nM
C=CC(=O)N1CCOC[C@@H](S(=O)(=O)c2ccc(N3CC(CN4CCC([C@@](CN5CCC5)(c5cccc(F)c5)[C@H]5CCC[C@@H]5NC(=O)OC)CC4)(OC)C3)c(F)c2)C1 [compound 230]	5 nM	< 50 nM	< 50 nM
C=C(CN1CCOCC1)C(=O)N1CC(S(=O)(=O)c2ccc(N3CC(F)(CN4CCC([C@@](CN5CCC5)(c5cccc(F)c5)[C@H]5CCC[C@@H]5NC(=O)OC)CC4)C3)cc2)C1 [Cpd. No. 12, methyl ((1S,2R)-2-((S)-2-(azetidin-1-yl)-1-(1-((3-fluoro-1-(4-((1-(2-(morpholinomethyl)acryloyl)azetidin-3-yl)sulfonyl)phenyl)azetidin-3-yl)methyl)piperidin-4-yl)-1-(3-fluorophenyl)ethyl)cyclopentyl)carbamate]	2 nM	< 100 nM	< 10 nM
C=CC(=O)N1CCCC[C@@H](S(=O)(=O)c2ccc(N3CC(F)(CN4CCC([C@@](CN5CCC5)(c5cccc(F)c5)[C@H]5CCC[C@@H]5NC(=O)OC)CC4)C3)c(F)c2)C1 [compound 224]	4 nM	< 50 nM	< 50 nM
C=CC(=O)N1CCCC[C@@H](S(=O)(=O)c2ccc(N3CC(C)(CN4CCC([C@@](CN5CCC5)(c5cccc(F)c5)[C@H]5CCC[C@@H]5NC(=O)OC)CC4)C3)c(F)c2)C1 [compound 225]	7 nM	< 100 nM	< 100 nM
C=C(CN1CCCCC1)C(=O)N1CC(S(=O)(=O)c2ccc(N3CC(F)(CN4CCC([C@@](CN5CCC5)(c5cccc(F)c5)[C@H]5CCC[C@@H]5NC(=O)OC)CC4)C3)cc2)C1 [Cpd. No. 18, methyl ((1S,2R)-2-((S)-2-(azetidin-1-yl)-1-(1-((3-fluoro-1-(4-((1-(2-(piperidin-1-ylmethyl)acryloyl)azetidin-3-yl)sulfonyl)phenyl)azetidin-3-yl)methyl)piperidin-4-yl)-1-(3-fluorophenyl)ethyl)cyclopentyl)carbamate]	2 nM	< 100 nM	< 10 nM
COC(=O)N[C@H]1CCC[C@@H]1[C@](CNC(C)=O)(c1cccc(F)c1)C1CCN(CC2CN(c3ccc(S(=O)(=O)C4CN(C(=O)/C=C/CN5CCCCC5)C4)c(CN4CC(F)C4)c3)C2)CC1 [compound 131]	2 nM	< 10 nM	< 10 nM
C=CC(=O)N1CCCC[C@@H](S(=O)(=O)c2ccc(N3CC(CN4CCC([C@@](CN5CCC5)(c5cccc(F)c5)[C@H]5CCC[C@@H]5NC(=O)OC)CC4)(OC)C3)c(F)c2)C1 [compound 227]	7 nM	< 50 nM	< 50 nM
C=CC(=O)N1CCCC[C@@H](S(=O)(=O)c2ccc(N3CC(CN4CCC([C@@](CN5CCC5)(c5cccc(F)c5)[C@H]5CCC[C@@H]5NC(=O)OC)CC4)C3)cc2)C1 [compound 220]	5 nM	< 50 nM	< 10 nM
C=CC(=O)N1CCC[C@@H](S(=O)(=O)c2ccc(N3CC(CN4CCC([C@@](CN5CCC5)(c5cccc(F)c5)[C@H]5CCC[C@@H]5NC(=O)OC)CC4)C3)c(F)c2)C1 [compound 219]	2 nM	< 10 nM	< 10 nM
C=CC(=O)N1CCOC[C@@H](S(=O)(=O)c2ccc(N3CC(C)(CN4CCC([C@@](CN5CCC5)(c5cccc(F)c5)[C@H]5CCC[C@@H]5NC(=O)OC)CC4)C3)c(F)c2)C1 [compound 217]	2 nM	< 100 nM	< 10 nM
COC(=O)N[C@H]1CCC[C@@H]1[C@](CN(C)C)(c1cccc(F)c1)C1CCN(CC2CN(c3ccc(S(=O)(=O)C4CN(C(=O)/C=C/CN(C)C)C4)cc3)C2)CC1 [Cpd. No. 2, methyl ((1S,2R)-2-((S)-2-(dimethylamino)-1-(1-((1-(4-((1-((E)-4-(dimethylamino)but-2-enoyl)azetidin-3-yl)sulfonyl)phenyl)azetidin-3-yl)methyl)piperidin-4-yl)-1-(3-fluorophenyl)ethyl)cyclopentyl)carbamate]	5 nM	< 10 nM	< 10 nM
C=CC(=O)N1CCCC[C@@H](S(=O)(=O)c2ccc(N3CC(CN4CCC([C@@](CN5CCC5)(c5cccc(F)c5)[C@H]5CCC[C@@H]5NC(=O)OC)CC4)(OC)C3)cc2)C1 [compound 226]	3 nM	< 50 nM	< 50 nM

The remaining compounds from weak to strong by IC50 [1], led by results:

IC50 [1]	IC50 [2]	IC50 [3]	SMILES
2 nM	< 100 nM	< 10 nM	COC(=O)N[C@H]1CCC[C@@H]1[C@](CN1CCC1)(c1cccc(F)c1)C1CCN(CC2(F)CN(c3ccc(S(=O)(=O)C4CN(C(=O)/C=C/CN(C)C)C4)cc3)C2)CC1 [Cpd. No. 7, methyl ((1S,2R)-2-((S)-2-(azetidin-1-yl)-1-(1-((1-(4-((1-((E)-4-(dimethylamino)but-2-enoyl)azetidin-3-yl)sulfonyl)phenyl)-3-fluoroazetidin-3-yl)methyl)piperidin-4-yl)-1-(3-fluorophenyl)ethyl)cyclopentyl)carbamate]
2 nM	< 1000 nM	< 50 nM	C=CC(=O)N1CCOC[C@@H](S(=O)(=O)c2ccc(N3CC(CN4CCC([C@@](CN5CCC5)(c5cccc(F)c5)[C@H]5CCC[C@@H]5NC(=O)OC)CC4)C3)c(F)c2)C1 [compound 218]
2 nM	< 100 nM	< 50 nM	C=CC(=O)N1CCOC[C@@H](S(=O)(=O)c2ccc(N3CC(F)(CN4CCC([C@@](CN5CCC5)(c5cccc(F)c5)[C@H]5CCC[C@@H]5NC(=O)OC)CC4)C3)c(F)c2)C1 [compound 216]
2 nM	< 50 nM	< 50 nM	C=CC(=O)Nc1cccc(S(=O)(=O)c2ccc(N3CC(F)(CN4CCC([C@@](CN5CCC5)(c5cccc(F)c5)[C@H]5CCC[C@@H]5NC(=O)OC)CC4)C3)c(F)c2)c1 [compound 80]
2 nM	< 50 nM	< 50 nM	COC(=O)N[C@H]1CCC[C@@H]1[C@](CN1CCCC1)(c1cccc(F)c1)C1CCN(CC2CN(c3ccc(S(=O)(=O)C4CN(C(=O)/C=C/CN(C)C)C4)cc3)C2)CC1 [Cpd. No. 3]
2 nM	< 10 nM	< 10 nM	COC(=O)N[C@H]1CCC[C@@H]1[C@](CN1CCC1)(c1cccc(F)c1)C1CCN(CC2CN(c3ccc(S(=O)(=O)C4CN(C(=O)/C=C/CN5CC(F)C5)C4)cc3)C2)CC1 [Cpd. No. 174]
1 nM	< 10 nM	< 10 nM	C=CC(=O)N1CCCCC(S(=O)(=O)c2ccc(N3CC(F)(CN4CCC([C@@](CN5CCC5)(c5cccc(F)c5)[C@H]5CCC[C@@H]5NC(=O)OC)CC4)C3)cc2)C1 (stereo partly drawn) [compound 215]
1 nM	< 100 nM	< 10 nM	C=C(CN1CCCC1)C(=O)N1CC(S(=O)(=O)c2ccc(N3CC(CN4CCC([C@@](CN5CCC5)(c5cccc(F)c5)[C@H]5CCC[C@@H]5NC(=O)OC)CC4)C3)cc2)C1 [Cpd. No. 19, methyl ((1S,2R)-2-((S)-2-(azetidin-1-yl)-1-(3-fluorophenyl)-1-(1-((1-(4-((1-(2-(pyrrolidin-1-ylmethyl)acryloyl)azetidin-3-yl)sulfonyl)phenyl)azetidin-3-yl)methyl)piperidin-4-yl)ethyl)cyclopentyl)carbamate]
